Assays:
JAK2/JAK2 [1] = experiment: TPO-stimulated pSTAT3/STAT5 in platelets of human whole blood; assay type: cell-based
Protocol: Stimulation was terminated by adding Lyse/Fix buffer. Staining with BUV786 mouse anti-human CD61 antibody (744384; BD Biosciences) was carried out, followed by washing, permeabilization and staining with PE mouse anti-human STAT3 antibody (651004; BD Biosciences) and APC mouse anti-human STAT5 antibody (562076; BD Biosciences), as described above. The expression of p-STAT3 and STAT5 was quantified by the MFI after the number of CD61-positive platelets was optimized.

JAK1/JAK3 [2] = experiment: IL-2-stimulated pSTAT5 in human whole blood; assay type: cell-based
Protocol: With respect to IL-2-stimulated JAK1/3 activation in human whole blood cells, whole blood (50 μL) was preincubated with compounds for 30 min and then stimulated with IL-2 (20 ng/mL) for 15 min.
(§1) The stimulations stated above were terminated with prewarmed Lyse/Fix Buffer (558,049; BD Biosciences, San Jose, CA, USA) for 10 min. Cells were stained with an anti-cluster of differentiation (CD)3 fluorescein isothiocyanate (FITC) antibody (required for PBMCs but not for the other cell types), washed, and permeabilized on ice using Perm III Buffer (558,050; BD Biosciences) prior to staining with an Alexa Fluor 647 anti-phosphorylated (p)STAT5 (pY694) antibody for 30 min and analyzed by flow cytometry. Phosphorylation of STAT5 was quantified by the median fluorescence intensity (MFI) after gating on the CD3-positive population.

TYK2/JAK1 [3] = experiment: IFNα-stimulated pSTAT5 in human PBMC (CD3+), FACS; assay type: cell-based
Protocol: With regard to IFNα-stimulated phosphorylation of STAT5 in human peripheral blood mononuclear cells (PBMCs), after incubation with QL-1200186 for 1 h, human PBMCs were stimulated with recombinant human IFNα (1000 U/mL; 11200–2; PBL Assay Science) for 30 min.
as §1

TYK2/JAK1 [4] = experiment: IFNα-induced pSTAT1 in CD3+ T cells of human PBMCs; assay type: cell-based
Protocol: (§2) The reaction was terminated by collecting cells for surface staining. Cells were stained with anti-CD3 FITC (300406; Biolegend, San Diego, CA, USA), anti-CD19 APC (555415; BD Biosciences) or aqua fluorescent reactive dye BV421 (L34966A; Invitrogen, Carlsbad, CA, USA) antibodies for 20 min. After washing, fixation buffer (557870; BD Biosciences) was added and incubated for 10 min. Cells were washed and permeabilized on ice using Perm III Buffer (558050; BD Biosciences). Cells were stained with PE anti-PSTAT1 antibody (562069; BD Biosciences) for 30 min and analyzed by flow cytometry.

TYK2/JAK1 [5] = experiment: IL-23-induced pSTAT3 in human Th17 cells; assay type: cell-based
Protocol: Human naïve CD4^+ T cells were separated using a human naïve CD4^+ T-cell isolation kit (StemCell, #17,852), and then cells were stimulated with anti-CD3 monoclonal antibody and anti-CD28 monoclonal antibody for 7–10 days under the following Th17-skewing treatments: IL-6, IL-23, IL-1β and transforming growth factor-β. Half of the medium was replaced with fresh medium containing a stimulant to induce differentiation every other day. Th17 cells were incubated overnight at 37 °C for deactivation. Cells were reinoculated on 96-well plates and cocultured with gradient-diluted QL-1200186 for 1 h and then stimulated with recombinant human IL-23 (ACRO: #IL-B-H52 WS) for 0.5 h. Cells were collected, and phosphorylation of STAT3 was quantified according to the MFI.

TYK2/JAK2 = experiment: IL-12/IL-18-induced IFNγ production in NK-92 cells, ELISA; assay type: cell-based, human
Protocol: The inhibitory effect of QL-1200186 on IL-12/IL-18-induced IFNγ production in NK cells or human whole blood was determined by enzyme-linked immunosorbent assay (ELISA). NK92 cells were stimulated with recombinant human IL-12 (2 ng/mL; 200–12; PeproTech, Cranbury, NJ, USA) and recombinant human IL-18 (5 ng/mL; 9124-IL-050/CF; R&D Systems, Minneapolis, MN, USA) with or without QL-1200186 for 24 h at 37 °C. For human whole blood cells, whole blood (200 μL) was preincubated with the compound for 1 h and then stimulated with recombinant human IL-12 (2 ng/mL) or recombinant human IL-18 (10 ng/mL) for 24 h. After centrifugation, the supernatant was collected, and IFNγ production in the supernatant was measured with human IFNγ ELISA kits according to the manufacturer’s instructions (Biolegend, 430,104).

JAK1/JAK3 [6] = experiment: IL-2-stimulated pSTAT5 in human PBMC; assay type: cell-based; conditions: @10μM
Protocol: With regard to IL-2-stimulated JAK1/3 activation in human PBMCs, after 1 h of incubation with QL-1200186, human PBMCs were stimulated with human IL-2 (20 ng/mL; C013; Novoprotein) for 20 min.
as §1

JAK2/JAK2 [7] = experiment: GM-CSF-stimulated pSTAT5 in U937 cells; assay type: cell-based, human; conditions: @10μM
Protocol: With respect to GM-CSF-stimulated JAK2 activation in U937 cells (Cobioer Biosciences, CBP60277), after 1 h of treatment with QL-1200186, U937 cells were stimulated with GM-CSF (20 ng/mL; C003; Novoprotein, Suzhou, China) for 15 min.
as §1

TYK2/JAK1 [8] = experiment: IL-23 HEK293 reporter assay; assay type: cell-based, human
TYK2/JAK1 [9] = experiment: IFNα HEK293 (HEK-Blue IFN-α/β) reporter gene assay; assay type: cell-based, human
Protocol: HEK-Blue™ IFN-α/β cells were used to determine the activity of QL-1200186. After 24 h of incubation with QL-1200186, HEK-Blue™ IFN-α/β cells (Invivogen; NKB-IFNAB) were stimulated with human IFNα (200 U/mL; catalog number: 11200–2; PBL Assay Science; Piscataway, NJ, USA) for 6 h. Stimulation of HEK-Blue IFN-α/β cells with human IFNα activates the JAK/STAT/ISGF3 pathway and subsequently induces the production of SEAP. Levels of SEAP in the supernatant were readily assessable using QUANTI-Blue™ Solution (InvivoGen, San Diego, CA, USA).

TYK2/JAK1 [10] = experiment: IFNα-induced pSTAT1 in CD19+ B cells of human PBMCs; assay type: cell-based
Protocol: as §2

Row | Compound | activity in thrombopoietin (TPO)-induced JAK2/JAK2 signaling (JAK2/JAK2 [1]; human whole blood) | activity in IL-2-mediated JAK1/JAK3 signaling (JAK1/JAK3 [2]) | IC50 (TYK2/JAK1 [3]) [nM] | IC50 (TYK2/JAK1 [4]) [nM] | IC50 (TYK2/JAK1 [5]) [nM] | TPO-pSTAT3/STAT5 in human whole blood (JAK2/JAK2) inhibition (JAK2/JAK2 [1]; @10μM) | IC50 (TYK2/JAK2) [nM] | IL-2- pSTAT5 in PBMC (JAK1/JAK3) inhibition (JAK1/JAK3 [6]) [% inhibition @10μM] | GM-CSF-pSTAT5 in U937 (JAK2/JAK2) inhibition (JAK2/JAK2 [7]) [% inhibition @10μM] | IC50 (TYK2/JAK1 [8]) [nM] | IC50 (TYK2/JAK1 [9]) [nM] | IC50 (TYK2/JAK1 [10]) [nM]
1 | CNc1cc(Nc2cccn(-c3ccccn3)c2=O)nc2c(C(=O)N[C@@H]3CC[C@H]3OC)cnn12 [NDI-034858, reference compound] | no activity | no activity |  |  |  |  |  |  |  |  |  | 
2 | deucravacitinib [BMS-986165, reference compound] |  | slight inhibitory effect | 19 | 7.8 | 6 | no inhibition @10μM | 38.8 | ~40 | ~10 | 6.41 | 6.33 | 6.29

From article PMC10578023 (Cell Communication and Signaling : CCS, 2023)
